18 compounds from patent US20240376123A1, “KRAS G12D INHIBITORS AND USES THEREOF” (SUZHOU ZANRONG PHARMA LIMITED, priority 2021, published 2024) can be followed below.

This test concerns p-ERK in PNAC-1/HPAC cell. Nature of the test: Phospho-ERK 1/2 assay (Table 1). The test is classed as cell-based. The note with it: Homo sapiens; PNAC-1/HPAC cell, 3 hours compound incubation; read-out: p-ERK IC50. As for the experimental part:
Allow PNAC-1/HPAC cell growth in a T75 flask in DMEM and 10% 1 fetal calf serum (FCS; Gibco), using standard tissue culture procedures until ˜80% confluency is achieved. Day 1, seed 6000 cells/well in 384 well plate and incubate at 37° C., 5% CO2. Add diluted compound by Echo 550, final DMSO is 0.5%, incubate cells at 37° C., 5% CO2 for 3 hours. Then, remove medium and fix cells with 3.7% formaldehyde in PBS (PFA) by Apricot. Wash with PBS once. Permeabilize cells with cold 100% methanol and repeat wash once with PBS once. Add Li-Cor blocking buffer to each well and incubate 1.5 hours at RT. Remove blocking buffer and add primary antibody mixture (rabbit anti pERK, mouse anti GAPDH). Incubate at 4° C. overnight. Day 2, wash with PBST (Tween-20 in PBS) with total 3 times and then add secondary antibody mixture (goat anti rabbit 800CW (1:800 dilution in the combined solution) and goat anti mouse 680RD (1:800 dilution in the combined solution)), incubate for 60 minutes at RT away from light. Repeat washing with PBST 3 times. After final wash, centrifuge plate up-side-down at 1000 rpm to remove wash solution completely from wells. Before plate scanning, clean the bottom plate surface and the Odyssey* Imager scanning bed (if applicable) with moist, lint-free tissue to avoid any obstructions during scanning. Scan plate with detection in both 700 and 800 nm channels.

On to `N#Cc1c(N)sc2cccc(-c3nc4c5c(nc(OC[C@@]67CCCN6C[C@H](F)C7)nc5c3F)N3C[C@@H]5CC[C@@H](N5)C3CO4)c12` (stereo partly drawn) [Compound 22, 2-amino-4-((6R,9S)-1-fluoro-12-(((2R,7aS)-2-fluorotetrahydro-1H-pyrrolizin-7a(5H)-yl)methoxy)-5a,6,7,8,9,10-hexahydro-5H-4-oxa-3,10a,11,13,14-pentaaza-6,9-methanonaphtho[1,8-ab]heptalen-2-yl)benzo[b]thiophene-3-carbonitrile], for which the IC50 (as a rule, the concentration that gives 50% inhibition) came to 0.493 µM.

For the compound `Oc1cc(-c2nc3c4c(nc(OC[C@@]56CCCN5C[C@H](F)C6)nc4c2F)N2C[C@@H]4CC[C@@H](N4)C2CO3)c2c(F)cccc2c1` (stereo partly drawn) [Compound 6, 5-fluoro-4-((6R,9S)-1-fluoro-12-(((2R,7aS)-2-fluorotetrahydro-1H-pyrrolizin-7a(5H)-yl)methoxy)-5a,6,7,8,9,10-hexahydro-5H-4-oxa-3,10a,11,13,14-pentaaza-6,9-methanonaphtho[1,8-ab]heptalen-2-yl)naphthalen-2-ol], the IC50 amounted to 0.086 µM.

`C#Cc1c(F)ccc2cccc(-c3nc4c5c(nc(OCC6(CN7C8CCC7COC8)CC6)nc5c3F)N3CC5CCC(N5)[C@H]3CO4)c12` (stereo in doubt) [Compound 49, (5aS,6R,9S)-12-((1-((3-oxa-8-azabicyclo[3.2.1]octan-8-yl)methyl)cyclopropyl)methoxy)-2-(8-ethynyl-7-fluoronaphthalen-1-yl)-1-fluoro-5a,6,7,8,9,10-hexahydro-5H-4-oxa-3,10a,11,13,14-pentaaza-6,9-methanonaphtho[1,8-ab]heptalene]: the IC50 turned out to be 0.851 µM.

As to `C#Cc1c(F)ccc2cccc(-c3nc4c5c(nc(OCC6(CN7CCOCC7)CC6)nc5c3F)N3C[C@H]5CC[C@H](N5)[C@H]3CO4)c12` [Compound 40, (5aS)-2-(8-ethynyl-7-fluoronaphthalen-1-yl)-1-fluoro-12-((1-(morpholinomethyl)cyclopropyl)methoxy)-5a,6,7,8,9,10-hexahydro-5H-4-oxa-3,10a,11,13,14-pentaaza-6,9-methanonaphtho[1,8-ab]heptalene], the half-maximal inhibitory concentration (IC50) was found to be 0.155 µM.

Regarding `Oc1cc(-c2nc3c4c(nc(OC[C@@]56CCCN5C[C@H](F)C6)nc4c2F)N2C[C@H]4CC[C@H](N4)[C@H]2CO3)c2c(Cl)cccc2c1` [Compound 27, 5-chloro-4-((5aS,6S,9R)-1-fluoro-12-(((2R,7aS)-2-fluorotetrahydro-1H-pyrrolizin-7a(5H)-yl)methoxy)-5a,6,7,8,9,10-hexahydro-5H-4-oxa-3,10a,11,13,14-pentaaza-6,9-methanonaphtho[1,8-ab]heptalen-2-yl)naphthalen-2-ol], the IC50 is 0.005 µM.

In the case of `CCc1c(F)ccc2cccc(-c3nc4c5c(nc(OC[C@@]67CCCN6C[C@H](F)C7)nc5c3F)N3C[C@@H]5CC[C@@H](N5)C3CO4)c12` (stereo partly drawn) [Compound 4, (6R,9S)-2-(8-ethyl-7-fluoronaphthalen-1-yl)-1-fluoro-12-(((2R,7aS)-2-fluorotetrahydro-1H-pyrrolizin-7a(5H)-yl)methoxy)-5a,6,7,8,9,10-hexahydro-5H-4-oxa-3,10a,11,13,14-pentaaza-6,9-methanonaphtho[1,8-ab]heptalene], the IC50 was determined as 0.121 µM.

`[2H]C#Cc1c(F)ccc2cccc(-c3nc4c5c(nc(OC[C@@]67CCCN6C[C@H](F)C7)nc5c3F)N3CC5CCC(N5)[C@H]3CO4)c12` (stereo in doubt) [Compound 34, (5aS,6R,9S)-2-(8-(ethynyl-d)-7-fluoronaphthalen-1-yl)-1-fluoro-12-(((2R,7aS)-2-fluorotetrahydro-1H-pyrrolizin-7a(5H)-yl)methoxy)-5a,6,7,8,9,10-hexahydro-5H-4-oxa-3,10a,11,13,14-pentaaza-6,9-methanonaphtho[1,8-ab]heptalene]: the IC50 is 0.005 µM.

For `C#Cc1c(F)ccc2cccc(-c3nc4c5c(nc(OCC6(CN7CCOC8(CC8)C7)CC6)nc5c3F)N3CC5CCC(N5)[C@H]3CO4)c12` (stereo in doubt) [Compound 46, (5aS,6R,9S)-12-((1-((4-oxa-7-azaspiro[2.5]octan-7-yl)methyl)cyclopropyl)methoxy)-2-(8-ethynyl-7-fluoronaphthalen-1-yl)-1-fluoro-5a,6,7,8,9,10-hexahydro-5H-4-oxa-3,10a,11,13,14-pentaaza-6,9-methanonaphtho[1,8-ab]heptalene], the IC50 stood at 0.328 µM.

On to `Fc1ccc2cccc(-c3nc4c5c(nc(OC[C@@]67CCCN6C[C@H](F)C7)nc5c3F)N3C[C@@H]5CC[C@@H](N5)C3CO4)c2c1` (stereo partly drawn) [Compound 16, (6R,9S)-1-fluoro-2-(7-fluoronaphthalen-1-yl)-12-(((2R,7aS)-2-fluorotetrahydro-1H-pyrrolizin-7a(5H)-yl)methoxy)-5a,6,7,8,9,10-hexahydro-5H-4-oxa-3,10a,11,13,14-pentaaza-6,9-methanonaphtho[1,8-ab]heptalene], for which the 50% inhibitory concentration (IC50) came out at 0.355 µM.

As to `C#Cc1c(F)ccc2cccc(-c3nc4c5c(nc(OC[C@@]67CCCN6C[C@H](F)C7)nc5c3F)N3CC5CCC(N5)[C@@H]3CO4)c12` (single isomer, unassigned) [Compound 9], the IC50 was determined as 0.308 µM.

As to `N#Cc1cccc2cccc(-c3nc4c5c(nc(OC[C@@]67CCCN6C[C@H](F)C7)nc5c3F)N3C[C@@H]5CC[C@@H](N5)C3CO4)c12` (stereo partly drawn) [Compound 20, 8-((6R,9S)-1-fluoro-12-(((2R,7aS)-2-fluorotetrahydro-1H-pyrrolizin-7a(5H)-yl)methoxy)-5a,6,7,8,9,10-hexahydro-5H-4-oxa-3,10a,11,13,14-pentaaza-6,9-methanonaphtho[1,8-ab]heptalen-2-yl)-1-naphthonitrile], the half-maximal inhibitory concentration (IC50) is 0.735 µM.

Consider `C#Cc1cccc2cc(O)cc(-c3nc4c5c(nc(OC[C@@]67CCCN6C[C@H](F)C7)nc5c3F)N3C[C@@H]5CC[C@@H](N5)C3CO4)c12` (stereo partly drawn) [Compound 5, 5-ethynyl-4-((6R,9S)-1-fluoro-12-(((2R,7aS)-2-fluorotetrahydro-1H-pyrrolizin-7a(5H)-yl)methoxy)-5a,6,7,8,9,10-hexahydro-5H-4-oxa-3,10a,11,13,14-pentaaza-6,9-methanonaphtho[1,8-ab]heptalen-2-yl)naphthalen-2-ol], for which the IC50 is 0.077 µM.

Turning to `Oc1cc(-c2nc3c4c(nc(OC[C@@]56CCCN5C[C@H](F)C6)nc4c2F)N2C[C@H]4CC[C@H](N4)[C@H]2CO3)c2cc(F)ccc2c1` [Compound 30, 6-fluoro-4-((5aS,6S,9R)-1-fluoro-12-(((2R,7aS)-2-fluorotetrahydro-1H-pyrrolizin-7a(5H)-yl)methoxy)-5a,6,7,8,9,10-hexahydro-5H-4-oxa-3,10a,11,13,14-pentaaza-6,9-methanonaphtho[1,8-ab]heptalen-2-yl)naphthalen-2-ol], the IC50 was 0.017 µM.

Take `Cc1c(F)ccc2cccc(-c3nc4c5c(nc(OC[C@@]67CCCN6C[C@H](F)C7)nc5c3F)N3C[C@@H]5CC[C@@H](N5)C3CO4)c12` (stereo partly drawn) [Compound 13, (6R,9S)-1-fluoro-2-(7-fluoro-8-methylnaphthalen-1-yl)-12-(((2R,7aS)-2-fluorotetrahydro-1H-pyrrolizin-7a(5H)-yl)methoxy)-5a,6,7,8,9,10-hexahydro-5H-4-oxa-3,10a,11,13,14-pentaaza-6,9-methanonaphtho[1,8-ab]heptalene]: the half-inhibitory concentration (IC50) worked out at 0.237 µM.

For `CCCCCCCCCC(=O)OCOC(=O)N1[C@@H]2CC[C@H]1[C@H]1COc3nc(-c4cc(O)cc5ccc(F)c(CC)c45)c(F)c4nc(OC[C@@]56CCCN5C[C@H](F)C6)nc(c34)N1C2` [Compound 45, (Decanoyloxy)methyl (5aS,6S,9R)-2-(8-ethyl-7-fluoro-3-hydroxynaphthalen-1-yl)-1-fluoro-12-(((2R,7aS)-2-fluorotetrahydro-1H-pyrrolizin-7a(5H)-yl)methoxy)-5a,6,7,8,9,10-hexahydro-5H-4-oxa-3,10a,11,13,14-pentaaza-6,9-methanonaphtho[1,8-ab]heptalene-14-carboxylate], the IC50 amounted to 0.0035 µM.

Take `COc1ccc2cccc(-c3nc4c5c(nc(OC[C@@]67CCCN6C[C@H](F)C7)nc5c3F)N3C[C@@H]5CC[C@@H](N5)C3CO4)c2c1` (stereo partly drawn) [Compound 17, (6R,9S)-1-fluoro-12-(((2R,7As)-2-fluorotetrahydro-1H-pyrrolizin-7a(5H)-yl)methoxy)-2-(7-methoxynaphthalen-1-yl)-5a,6,7,8,9,10-hexahydro-5H-4-oxa-3,10a,11,13,14-pentaaza-6,9-methanonaphtho[1,8-ab]heptalene]: the IC50 turned out to be 1 µM.

Take `Fc1c(-c2cccc3cccc(Cl)c23)nc2c3c(nc(OC[C@@]45CCCN4C[C@H](F)C5)nc13)N1C[C@@H]3CC[C@@H](N3)C1CO2` (stereo partly drawn) [Compound 12, (6R,9S)-2-(8-chloronaphthalen-1-yl)-1-fluoro-12-(((2R,7aS)-2-fluorotetrahydro-1H-pyrrolizin-7a(5H)-yl)methoxy)-5a,6,7,8,9,10-hexahydro-5H-4-oxa-3,10a,11,13,14-pentaaza-6,9-methanonaphtho[1,8-ab]heptalene]: the IC50 stood at 0.068 µM.

In the case of `Oc1cc(-c2nc3c4c(nc(OCC56CCCN5CCC6)nc4c2F)N2C[C@@H]4CC[C@@H](N4)C2CO3)c2c(Cl)cccc2c1` (stereo partly drawn) [Compound 2, 5-chloro-4-((6R,9S)-1-fluoro-12-((tetrahydro-1H-pyrrolizin-7a(5H)-yl)methoxy)-5a,6,7,8,9,10-hexahydro-5H-4-oxa-3,10a,11,13,14-pentaaza-6,9-methanonaphtho[1,8-ab]heptalen-2-yl)naphthalen-2-ol], the half-maximal inhibitory concentration (IC50) was 0.73 µM.
